From patent US9931320B2, “Parasiticidal oral veterinary compositions comprising systemically-acting active agents, methods and uses thereof” (MERIAL INC., priority 2012, dated 2018)

System: Trichuris vulpis (whipworm)
Assay: Efficacy against Trichuris vulpis (whipworm) in dogs (Example 14)
Settings: after 7 days; treated on Day 0; 0.5 mg/kg milbemycin oxime alone or with 2.5 mg/kg Compound A; naturally infected dogs

Substance: milbemycin oxime
- Efficacy against T. vulpis (parasite counts): > 94%
